Results published in PubChem BioAssay (NCI).
Several values for one entry are separate records, joined by “and”; a condition that tells them apart may be missing. Identical values can stand only once.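 Method: 48-hour compound exposure of cells in 96-well plates, five concentrations, linear interpolation of endpoints. GI50 is the concentration that inhibits growth by half. TGI: concentration producing complete growth inhibition.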

How the values were obtained:
Test in all cases: DTP human tumour cell line panel, 48 h
SK-MEL-2 melanoma = tested on: SK-MEL-2 melanoma
HT29 colon = tested on: HT29 colon
SF-295 CNS = tested on: SF-295 CNS
SF-539 CNS = tested on: SF-539 CNS
NCI/ADR-RES ovarian = tested on: NCI/ADR-RES ovarian
TK-10 renal = tested on: TK-10 renal
786-0 renal = tested on: 786-0 renal
HOP-92 NSCLC = tested on: HOP-92 NSCLC
SK-MEL-28 melanoma = tested on: SK-MEL-28 melanoma
UO-31 renal = tested on: UO-31 renal

Structure (SMILES) | TGI (SK-MEL-2 melanoma) | TGI (HT29 colon) | TGI (SF-295 CNS) | TGI (SF-539 CNS) | TGI (NCI/ADR-RES ovarian) | TGI (TK-10 renal) | TGI (786-0 renal) | TGI (HOP-92 NSCLC) | TGI (SK-MEL-28 melanoma) | TGI (UO-31 renal) | GI50 (SF-295 CNS) | GI50 (HOP-92 NSCLC) | GI50 (SF-539 CNS)
O=C1C=CC(=O)c2c(O)c(N3CCOCC3)c(Cl)c(O)c21 | 0.765 µM | 0.586 µM | 3.21 µM | 1 µM | 1.43 µM | 1.79 µM | 0.84 µM | 0.675 µM | 0.786 µM | 0.892 µM | – | – | –
O=C1C(N2CCN(CCOCCO)CC2)=C(Cl)C(=O)c2ncccc21 | 43.9 µM | 46 µM | > 100 µM | 44.6 µM | > 100 µM | 48.5 µM | 36 µM | 6.27 µM and 31.4 µM | 43.7 µM | 33.6 µM | > 100 µM | 16.7 µM | –
CCOc1ccc2nc3nc(=O)[nH]c(C)c3c(NC(C)(CO)CO)c2c1 | > 100 µM | > 100 µM | > 100 µM | > 100 µM | > 100 µM | > 100 µM | > 100 µM | > 100 µM | > 100 µM | > 100 µM | – | – | –
CSc1nnc(SCc2nn3c(=O)cc(C)nc3s2)s1 | > 100 µM | > 100 µM | > 100 µM | > 100 µM | > 100 µM | > 100 µM | > 100 µM | > 100 µM | > 100 µM | > 100 µM | – | – | –
O=c1[nH]n(CCc2ccccc2CCl)c2ccc([N+](=O)[O-])cc12 | > 100 µM | > 100 µM | > 100 µM | > 100 µM | > 100 µM | > 100 µM | > 100 µM | > 100 µM | > 100 µM | > 100 µM | – | – | –
O=Nc1c(-c2c(O)[nH]c3ccc(I)cc23)[nH]c2ccccc12 | 4.93 µM | > 21.6 µM | > 71.7 µM | 81.5 µM | > 63.4 µM | > 41.5 µM | > 35.1 µM | > 27.7 µM | > 100 µM | 5.43 µM | – | – | –
O=C1Nc2cccc(Cl)c2/C1=C\c1c(-c2ccccc2)nc2n1CCS2 | 46.2 µM | 42.5 µM | > 100 µM | 36 µM | > 100 µM | 45.1 µM | 36.2 µM | 56.9 µM | 44.7 µM | 48.8 µM | – | – | –
c1cc2cc3c4c5c(cc6ccc7cc8cc9c%10c8c8c7c6c5c8c5c%10c(c1C9N1CCOCCOCCOCCOCCOCC1)c2c45)C3 (stereo not drawn) | > 100 µM | > 100 µM | > 100 µM | > 100 µM | > 100 µM | > 100 µM | > 100 µM | > 100 µM | > 100 µM | > 100 µM | – | – | –
COC(=O)[C@@H](NS(=O)(=O)CC12CCC(CC1)C2(C)C)C(C)(C)C | > 100 µM | > 100 µM | > 100 µM | > 100 µM | > 100 µM | > 100 µM | > 100 µM | > 100 µM | > 100 µM | > 100 µM | – | – | –
COc1cccc(NC(=O)CC(=O)n2nc(-c3ccccc3)c(N=Nc3ccc(Cl)cc3)c2-c2ccccc2)c1 | 89.1 µM | 56.7 µM | > 88.8 µM | > 74.8 µM | 52.6 µM | > 100 µM | 64.4 µM | > 75 µM | > 100 µM | 30.8 µM | – | – | –
Clc1ccc(-c2nn3c(COc4cccc(OCc5nnc6sc(-c7ccc(Cl)cc7)nn56)c4)nnc3s2)cc1 | > 100 µM | 60.2 µM | > 100 µM | 49.5 µM | > 100 µM | > 100 µM | 59.9 µM | > 100 µM | 35.9 µM | 39.6 µM | – | – | –
[N-]=[N+]=Nc1nc2ccccc2c(N=[N+]=[N-])c1Cl | > 100 µM | > 100 µM | > 100 µM | > 100 µM | > 100 µM | > 100 µM | > 100 µM | > 100 µM | > 100 µM | > 100 µM | – | – | –
CC/C=C/c1cc2c(cc1O)CCC1C2CC[C@@]2(C)C1CC[C@@H]2O (stereo partly drawn) | 6.29 µM | 21.1 µM | 1.48 µM | 2.59 µM | 5.67 µM | 4.72 µM | 13.8 µM | 26 µM | 24.1 µM | 18.3 µM | – | – | 0.645 µM
